From patent publication US20200236969A1, “METHODS AND COMPOSITIONS FOR IMPROVING GROWTH AND PERFORMANCE” (priority 2017, published 2020)

Key:
[1] = system: turkey poults; test: Pen trial of probiotic blends alone and with prebiotics: body weight, uniformity, feed conversion; type: in vivo
Protocol: Pen trial experiments were performed using the 4-strain probiotic blend and 10-strain (3 week) probiotic blend described in Example 2. The effect of each combination was assessed alone and in combination with one of two prebiotics, Lactose 1% in feed or 0.5 lbs SAFMANNAN per ton of feed (Phileo Lesaffre Animal Care, Marcq-En-Baroeul Cedex, France). The prebiotic was administered continuously in feed.
This Experiment started in December 2017 and lasted 15 weeks. Poults were housed in pens through 6 weeks of age then moved to a common area. They remained on experimental feed through 6 weeks; then were all given control feed. Probiotic inoculations were performed at day of hatch and 3 weeks of age.

[2] = system: day-of-hatch turkeys; test: Second caged trial: 4-strain combination vs FM-B11 and BMD, body weight; type: in vivo, turkey
Source text: FIG. 5A and FIG. 5B show average body weights in grams (y-axis) for day-of-hatch turkeys treated with a 4-strain probiotic blend inoculation group, day-of-hatch turkeys treated with an existing commercial probiotic derived from chickens (FM-B11), and day-of-hatch turkeys treated with a low-dose antibiotic (bacitracin methylene disalicylate or BMD), as described in Example 2, compared to day-of-hatch turkeys treated with a saline negative control. FIG. 5A. Turkeys were weighed on day 0 (that is, day-of-hatch), day 3, day 6, and day 13. Error bars depict standard error of means. […] For each treatment group, eight replicate cages were used with 10 birds per cage (n=80 per treatment group).
A second trial was performed to repeat the 4-strain combination inoculation and compare it again with a negative saline control, an existing commercial probiotic derived from chickens (FM-B11), and a low-dose antibiotic (bacitracin methylene disalicylate or BMD) administered continuously at 50 g/ton in the feed. […] Results are shown in FIG. 5 and Table 5 and indicate that there is repeatability in the ability of this 4-strain combination to enhance turkey performance related to weight gain.

OC[C@H]1O[C@@H](O[C@H]2[C@H](O)[C@@H](O)C(O)O[C@@H]2CO)[C@H](O)[C@@H](O)[C@H]1O (stereo partly shown) [Lactose 1%, Lactose]
Feed conversion ratio 0-2 weeks ([1]; 0-2 weeks of age): 1.40 | Feed conversion ratio 0-6 weeks ([1]; 0-6 weeks of age): 1.71 | Total body weight average Day 0 ([1]; Day 0 (baseline), pen trial): 65.0 grams | Total body weight average Week 1 ([1]; Week 1, pen trial, probiotic at day of hatch and 3 weeks, prebiotic continuously in feed): 169.9 grams | Total body weight average Week 2 ([1]; Week 2, pen trial): 350.7 grams | Total body weight average Week 3 ([1]; Week 3, pen trial): 704.0 grams | Coefficient of variation as a measure of bird uniformity Week 3 ([1]; Week 3 of age): 10.304 | Total body weight average Week 6 ([1]; Week 6, pen trial): 2471.0 grams | Coefficient of variation as a measure of bird uniformity Week 6 ([1]; Week 6 of age): 9.3181

bacitracin methylene disalicylate [BMD Antibiotic]
Average body weight Day 3 ([2]; day 3): 76.8 g | Average body weight Day 6 ([2]; day 6): 125.5 g | Average body weight Day 13 ([2]; day 13): 314.3 g | Average body weight Day 0 ([2]; day-of-hatch (baseline)): 60.1 g
